The source of these data is publication PMC12373729 (Scientific Reports, 2025).

Series [1] has as its system SARS-CoV-2. Kind of series: microbe, parasite or virus in culture. The series is classed as cell-based.
The subject of series [2] is Vero E6 cells.
Series [3] can be described thus: Cell viability / 50% cytotoxic concentration, EZ-Cytox kit. The note with it: African green monkey, CC50, Vero E6 cells.
Series [4] in a line: in vitro. Particulars: African green monkey.
Series [5] relates to Vero E6 cells. Kind of series: Cell viability / 50% cytotoxic concentration, EZ-Cytox kit. Particulars: Vero E6 cells, 1 nM–100 µM, 2 days of treatment; Table S2.
The conditions of series [6]: all patients, clinical settings; cited from earlier work.
Series [7] has as its system SARS-CoV-2 papain-like protease. The note with it: cited from earlier work.
In series [8] the test system is SARS-CoV-2. Particulars: cited from earlier work.
Series [9] concerns YFV protease. Particulars: competitive inhibition; ref Cardoso et al. 43, 44; cited from earlier work.
In series [10] the test system is ZIKV protease. Also noted: method as in Cardoso et al. 43, 44. The note with it: competitive inhibition; ref Cardoso et al. 43, 44; cited from earlier work.
Series [11] has as its system CHIKV nsP2 protease. Further details: method as in Cardoso et al. 43, 44. Particulars: ref Cardoso et al. 43, 44; cited from earlier work.
[12] abbreviates: Vero E6 cells, MOI 0.01, compound together with virus for 2 h, titers at 48 h, Table S2, '-' = no significant antiviral effect, read-out: IC50.
[13] abbreviates: Severe acute respiratory syndrome coronavirus 2, Vero C1008, Vero E6 cells, MOI 0.01, compound together with virus for 2 h, titers at 48 h, Table S2, '-' = no significant antiviral effect, read-out: IC50.
The mark [14] stands for this setting: 1 nM–100 µM, 2 days of treatment, Table S2.
[15] abbreviates: Severe acute respiratory syndrome coronavirus 2, Vero C1008, compound added 2 h before inoculation, washed, then infected 2 h, titers 48 h post-infection, '-' = no measurable antiviral effect, read-out: IC50 Pre-infection.
Where [16] appears, read: Severe acute respiratory syndrome coronavirus 2, Vero C1008, infected 2 h, washed, then medium containing compound, titers 48 h post-infection, '-' = no measurable antiviral effect, read-out: IC50 Post-infection.
Setting [17] is: Severe acute respiratory syndrome coronavirus 2, Vero C1008, Vero E6 cells, MOI 0.01, treatment during inoculation 2 h, then drug-free 48 h, Fig. 1, read-out: IC50.
Where [18] appears, read: Vero E6 cells, MOI 0.01, treatment during inoculation 2 h, then drug-free 48 h, Fig. 1, read-out: IC50.

One may read the IC50 as the point on the concentration scale where inhibition reaches its midpoint.

Entries after “also recorded” stand apart in the source; their conditions may differ. Structures can show the parent of a compound that is named as a salt. Where two headings read alike, the source gives them in different places. Where only a bound is given, the exact number is not on record here.

With `Nc1ncnc2c1ncn2[C@@H]1O[C@@H]2COP(=O)(O)O[C@H]3[C@@H](O)[C@H](n4cnc5c(N)ncnc54)O[C@@H]3COP(=O)(O)O[C@H]2[C@H]1O` [c-di-AMP sodium salt (2BA), c-di-AMP sodium salt], the IC50 in series [1] (setting [12]) was greater than 100 µM. The same compound registered a CC50 in [2] greater than 100 µM.

On to `O=c1[nH]cnc2nc[nH]c12` [Hypoxanthine (HPA), hypoxanthine], for which the IC50 in series [1] (setting [13]) was greater than 100 µM. Moreover, the CC50 at 2 days in series [3] (setting [14]) is greater than 100 µM.

For `COc1cc2nc(N3CCNCC3)nc(N)c2cc1OC` [6,7-dimethoxy-2-(1-piperazinyl)-4-quinazolinamine], the concentration for half-maximal inhibition (IC50) in series [1] (setting [13]) was greater than 100 µM. Further, in [4], the CC50 at 2 days was greater than 100 µM.

For `Cc1cc2nc3c(=O)[nH]c(=O)nc-3n(C[C@H](O)[C@H](O)[C@H](O)COP(=O)(O)O)c2cc1C` [riboflavin 5′-monophosphate sodium salt hydrate], the 50% inhibitory concentration (IC50) in series [1] (setting [13]) was 59.4 µM; in series [1] (setting [15]) it was greater than 100 µM; in series [1] (Severe acute respiratory syndrome coronavirus 2, Vero C1008, compound and virus simultaneously for 2 h, washed, titers 48 h post-infection, read-out: IC50 During infection), 59.4 µM; in [1] (setting [16]), greater than 100 µM. In addition, the CC50 at 2 days in series [4] was 98.9 µM. Further, the CC50 in series [2] (African green monkey, 2 days) was greater than 100 µM.

With `C/C1=C2/N[C@H]([C@H](CC(N)=O)[C@@]2(C)CCC(=O)NC[C@@H](C)OP(=O)(O)O[C@H]2[C@@H](O)[C@@H](n3cnc4cc(C)c(C)cc43)O[C@@H]2CO)[C@]2(C)N=C(/C(C)=C3N=C(/C=C4N=C1[C@@H](CCC(N)=O)C\4(C)C)[C@@H](CCC(N)=O)[C@]\3(C)CC(N)=O)[C@@H](CCC(N)=O)[C@]2(C)CC(N)=O.C[C@H]1O[C@@H](n2cnc3c(N)ncnc32)[C@H](O)[C@@H]1O.[Co]` [Coenzyme B12 (B1Z), coenzyme B12], in series [1] (setting [12]), the half-maximal inhibitory concentration (IC50) was greater than 100 µM. This compound also showed a CC50 in series [2] greater than 100 µM.

In the case of `Nc1nc2c(ncn2[C@@H]2O[C@@H]3COP(=O)(O)O[C@H]4[C@@H](O)[C@H](n5cnc6c(N)ncnc65)O[C@@H]4COP(=O)(O)O[C@H]3[C@H]2O)c(=O)[nH]1` [cGAMP sodium salt], the concentration for half-maximal inhibition (IC50) in [1] (setting [12]) is greater than 100 µM. The compound further had a CC50 in series [5] greater than 100 µM.

As to `CCC(CC)COC(=O)[C@H](C)N[P@](=O)(OC[C@H]1O[C@@](C#N)(c2ccc3c(N)ncnn23)[C@H](O)[C@@H]1O)Oc1ccccc1` [Remdesivir], the 50% inhibitory concentration (IC50) was 25.8 µM in [1] (setting [17]), less than 6.11 µM in [1] (setting [15]), 3.47 µM in series [1] (setting [16]) and 25.8 µM in series [1] (setting [18]). Further, the CC50 at 2 days was 98.9 µM in series [3] (0–100 μM, Table S3) and greater than 100 µM in series [3] (setting [14]). Besides, the “patients with elevated liver enzymes” value in series [6] is recorded as 35%.

On to `NC[C@@H]1O[C@H](O[C@H]2[C@@H](O)[C@H](O[C@@H]3[C@@H](O)[C@H](N)C[C@H](N)[C@H]3O[C@H]3O[C@H](CN)[C@@H](O)[C@H](O)[C@H]3N)O[C@@H]2CO)[C@H](N)[C@@H](O)[C@@H]1O` [Neomycin solution (NMY), neomycin solution], for which, in [1] (setting [12]), the half-inhibitory concentration (IC50) was greater than 100 µM. Besides, in series [5], the CC50 was greater than 100 µM.

Regarding `C/C1=C2/[N-][C@H]([C@H](CC(N)=O)[C@@]2(C)CCC(=O)NC[C@@H](C)OP(=O)([O-])O[C@H]2[C@@H](O)[C@@H](n3cnc4cc(C)c(C)cc43)O[C@@H]2CO)[C@]2(C)N=C(/C(C)=C3N=C(/C=C4N=C1[C@@H](CCC(N)=O)C\4(C)C)[C@@H](CCC(N)=O)[C@]\3(C)CC(N)=O)[C@@H](CCC(N)=O)[C@]2(C)CC(N)=O.[Co+3].[OH-]` [Hydroxocobalamin (HPA), hydroxocobalamin], the IC50 in series [1] (setting [12]) was greater than 100 µM. The same compound yielded a CC50 in [5] greater than 100 µM.

`Nc1ncnc2c1ncn2[C@@H]1O[C@H](CSCC[C@H](N)C(=O)O)[C@@H](O)[C@H]1O` [S-Adenosyl-L-homocysteine (SAH), S-adenosyl-l-homocysteine]: the IC50 in series [1] (setting [12]) was greater than 100 µM. In series [5], this compound gave a CC50 greater than 100 µM.

As to `Nc1ncnc2nc[nH]c12` [Adenine (ADE), adenine], in series [1] (setting [13]), the IC50 was greater than 100 µM. Further, the CC50 in series [4] is greater than 100 µM.

Consider `N[C@@H](Cc1c[nH]c2ccc(O)cc12)C(=O)O` [5-Hydroxy-L-tryptophan (4PQ), 5-hydroxy-L-tryptophan], for which, in series [1] (setting [13]), the IC50 is greater than 100 µM. Further, the CC50 at 2 days in [4] is greater than 100 µM.

In the case of `Cc1cc2nc3c(=O)[nH]c(=O)nc-3n(C[C@H](O)[C@H](O)[C@H](O)CO)c2cc1C` [riboflavin], the IC50 in [1] (setting [17]) and in series [1] (setting [18]) was 59.4 µM in each case. Moreover, in series [1] (Vero E6 cells, 2 h post-infection, in words), the “antiviral effect, treatment post-infection” value is recorded as “no measurable antiviral effects; also recorded: no effect”. Also, in series [1] (Vero E6 cells, 2 h prior to infection, in words), the “antiviral effect, treatment prior to infection” value is on record as “no measurable antiviral effects; also recorded: no effect”. Besides, the “antiviral effect, treatment during viral inoculation” value in series [1] (Vero E6 cells, in words) is given as “significant inhibition; also recorded: significantly reduced viral replication”. For the same compound, in [1] (drug-containing media for 48 h, Supplementary Fig. S1, in words), the “effect on viral replication when added to the culture medium after viral inoculation” value is given as “additional inhibitory effects on viral replication were observed”. Moreover, the “concentration inhibiting SARS-CoV-2 papain-like protease in vitro” value in series [7] is reported as greater than 50 µM. Moreover, in [7] (high concentrations, ref 2 (supplement)), the “concentration inhibiting viral papain-like protease (PLpro)” value was greater than 50 µM. The “effect on viral replication in cellular models” value in series [8] is given as “fails to block viral replication”. Also, the “IC50, YFV protease” value in series [9] is given as “medium micromolar range”. In series [10], the “IC50, ZIKV protease” value is given as “medium micromolar range”. This compound returned a CC50 at 2 days in series [3] (text and Fig. 1 (Fig. 1: 2 h treatment, then drug-free media 48 h)) greater than 100 µM. In series [11], the “activity against CHIKV nsP2 protease” value is given as “potent activity”.
